Tests used:
[1] = test system: HOP-62; test: Growth inhibition of human HOP-62 cells measured after 48 hrs by SRB assay; assay type: functional
[2] = test system: KM12; test: Growth inhibition of human KM12 cells measured after 48 hrs by SRB assay; assay type: functional
[3] = test system: HCT-116; test: Induction of apoptosis in human HCT-116 cells assessed as early apoptotic cells at 1.25 uM measured after 24 hrs by Annexin-V Alexa Fluor488/propidium iodide staining based flow cytometry (reference value: 6.3%); assay type: functional
[4] = test system: K562; test: Growth inhibition of human K562 cells measured after 48 hrs by SRB assay; assay type: functional
[5] = test system: NCI-H226; test: Growth inhibition of human NCI-H226 cells measured after 48 hrs by SRB assay; assay type: functional
[6] = test system: HCT-116; test: Induction of apoptosis in human HCT-116 cells assessed as early apoptotic cells at 1.25 uM measured after 48 hrs by Annexin-V Alexa Fluor488/propidium iodide staining based flow cytometry (reference value: 7.7%); assay type: functional
[7] = test system: HCT-116; test: Induction of apoptosis in human HCT-116 cells assessed as late apoptotic cells at 2.5 uM measured after 24 hrs by Annexin-V Alexa Fluor488/propidium iodide staining based flow cytometry (reference value: 1%); assay type: functional
[8] = test system: OVCAR-5; test: Growth inhibition of human OVCAR-5 cells measured after 48 hrs by SRB assay; assay type: functional
[9] = test system: BT-549; test: Growth inhibition of human BT-549 cells measured after 48 hrs by SRB assay; assay type: functional
[10] = Cytotoxicity against human L132 cells assessed as cell viability at 10 uM measured after 48 hrs by EZ-Cytox assay relative to control; assay type: cell-based; conditions: read-out: Activity
[11] = test system: HCT-116; test: Induction of apoptosis in human HCT-116 cells assessed as necrotic cells at 1.25 uM measured after 48 hrs by Annexin-V Alexa Fluor488/propidium iodide staining based flow cytometry (reference value: 7.7%); assay type: functional
[12] = test system: SF-295; test: Growth inhibition of human SF-295 cells measured after 48 hrs by SRB assay; assay type: functional
[13] = test system: SK-MEL-5; test: Growth inhibition of human SK-MEL-5 cells measured after 48 hrs by SRB assay; assay type: functional
[14] = test system: HCT-116; test: Induction of apoptosis in human HCT-116 cells assessed as necrotic cells at 2.5 uM measured after 24 hrs by Annexin-V Alexa Fluor488/propidium iodide staining based flow cytometry (reference value: 4.6%); assay type: functional
[15] = target: Epithelial discoidin domain-containing receptor 1 (Homo sapiens, UniProt Q08345); test: Inhibition of human DDR1 using KKSRGDYMTMQIG as substrate in presence of [gamma-33P]ATP by scintillation counting method
Chain of Epithelial discoidin domain-containing receptor 1 (Q08345 whole entry, the tested form may be a part): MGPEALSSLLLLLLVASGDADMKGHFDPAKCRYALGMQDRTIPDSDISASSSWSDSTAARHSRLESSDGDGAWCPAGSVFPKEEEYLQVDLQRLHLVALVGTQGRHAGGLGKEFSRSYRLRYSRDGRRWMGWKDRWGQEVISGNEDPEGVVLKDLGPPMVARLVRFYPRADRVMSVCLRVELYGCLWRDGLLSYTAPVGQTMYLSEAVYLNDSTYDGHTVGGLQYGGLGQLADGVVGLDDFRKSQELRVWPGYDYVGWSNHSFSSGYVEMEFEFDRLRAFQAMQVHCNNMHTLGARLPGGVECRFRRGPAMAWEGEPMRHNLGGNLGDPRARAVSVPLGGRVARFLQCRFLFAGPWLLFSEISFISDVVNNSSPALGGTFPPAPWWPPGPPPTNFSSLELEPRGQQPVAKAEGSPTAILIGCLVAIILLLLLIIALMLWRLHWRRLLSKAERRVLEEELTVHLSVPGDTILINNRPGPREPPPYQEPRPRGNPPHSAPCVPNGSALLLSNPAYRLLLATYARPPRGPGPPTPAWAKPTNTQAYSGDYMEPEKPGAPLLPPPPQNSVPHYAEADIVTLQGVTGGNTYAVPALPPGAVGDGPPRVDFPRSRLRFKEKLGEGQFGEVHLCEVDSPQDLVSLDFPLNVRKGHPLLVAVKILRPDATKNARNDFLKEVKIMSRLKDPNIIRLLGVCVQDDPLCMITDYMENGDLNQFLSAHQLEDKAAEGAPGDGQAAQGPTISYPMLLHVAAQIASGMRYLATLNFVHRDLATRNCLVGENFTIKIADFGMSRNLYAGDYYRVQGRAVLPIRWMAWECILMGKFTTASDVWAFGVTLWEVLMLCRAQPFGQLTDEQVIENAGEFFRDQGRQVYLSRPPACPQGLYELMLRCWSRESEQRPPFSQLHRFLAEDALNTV

[16] = test system: LOX IMVI; test: Growth inhibition of human LOX IMVI cells measured after 48 hrs by SRB assay; assay type: functional; conditions: for CC50: read-out: LC50 (the source's name)
[17] = test system: NCI-H522; test: Growth inhibition of human NCI-H522 cells measured after 48 hrs by SRB assay; assay type: functional
[18] = test system: OVCAR-3; test: Growth inhibition of human OVCAR-3 cells measured after 48 hrs by SRB assay; assay type: functional
[19] = test system: A498; test: Growth inhibition of human A498 cells measured after 48 hrs by SRB assay; assay type: functional
[20] = test system: HCT-116; test: Induction of apoptosis in human HCT-116 cells assessed as viable cells at 1.25 uM measured after 48 hrs by Annexin-V Alexa Fluor488/propidium iodide staining based flow cytometry (reference value: 82.3%); assay type: functional; conditions: read-out: Activity
[21] = test system: CCRF-CEM; test: Growth inhibition of human CCRF-CEM cells measured after 48 hrs by SRB assay; assay type: functional
[22] = test system: SNB-19; test: Growth inhibition of human SNB-19 cells measured after 48 hrs by SRB assay; assay type: functional
[23] = test system: NCI/ADR-RES; test: Growth inhibition of human NCI/ADR-RES cells measured after 48 hrs by SRB assay; assay type: functional
[24] = Cytotoxicity against human L132 cells assessed as cell viability at 3 uM measured after 48 hrs by EZ-Cytox assay relative to control; assay type: cell-based; conditions: read-out: Activity
[25] = test system: HCT-116; test: Induction of apoptosis in human HCT-116 cells assessed as late apoptotic cells at 5 uM measured after 48 hrs by Annexin-V Alexa Fluor488/propidium iodide staining based flow cytometry (reference value: 2.2%); assay type: functional
[26] = test system: HCT-116; test: Induction of apoptosis in human HCT-116 cells assessed as necrotic cells at 5 uM measured after 48 hrs by Annexin-V Alexa Fluor488/propidium iodide staining based flow cytometry (reference value: 7.7%); assay type: functional
[27] = test system: HCT-116; test: Induction of apoptosis in human HCT-116 cells assessed as viable cells at 1.25 uM measured after 24 hrs by Annexin-V Alexa Fluor488/propidium iodide staining based flow cytometry (reference value: 88.1%); assay type: functional; conditions: read-out: Activity
[28] = test system: RPMI-8226; test: Growth inhibition of human RPMI-8226 cells measured after 48 hrs by SRB assay; assay type: functional
[29] = test system: T47D; test: Growth inhibition of human T47D cells measured after 48 hrs by SRB assay; assay type: functional
[30] = test system: U-251; test: Growth inhibition of human U-251 cells measured after 48 hrs by SRB assay; assay type: functional
[31] = test system: Malme-3M; test: Growth inhibition of human Malme-3M cells measured after 48 hrs by SRB assay; assay type: functional
[32] = test system: HCT-116; test: Growth inhibition of human HCT-116 cells measured after 48 hrs by SRB assay; assay type: functional
[33] = test system: HL-60(TB); test: Growth inhibition of human HL-60(TB) cells measured after 48 hrs by SRB assay; assay type: functional
[34] = test system: MDA-MB-468; test: Growth inhibition of human MDA-MB-468 cells measured after 48 hrs by SRB assay; assay type: functional
[35] = test system: HCT-116; test: Induction of apoptosis in human HCT-116 cells assessed as early apoptotic cells at 2.5 uM measured after 48 hrs by Annexin-V Alexa Fluor488/propidium iodide staining based flow cytometry (reference value: 7.7%); assay type: functional
[36] = test system: UO-31; test: Growth inhibition of human UO-31 cells measured after 48 hrs by SRB assay; assay type: functional
[37] = test system: HCT-15; test: Growth inhibition of human HCT-15 cells measured after 48 hrs by SRB assay; assay type: functional
[38] = Cytotoxicity against African green monkey Vero cells assessed as cell viability at 1 uM measured after 48 hrs by EZ-Cytox assay relative to control; assay type: cell-based; conditions: chlorocebus sabaeus, read-out: Activity
[39] = test system: HCT-116; test: Induction of apoptosis in human HCT-116 cells assessed as viable cells at 2.5 uM measured after 24 hrs by Annexin-V Alexa Fluor488/propidium iodide staining based flow cytometry (reference value: 88.1%); assay type: functional; conditions: read-out: Activity
[40] = test system: MDA-MB-231; test: Growth inhibition of human MDA-MB-231 cells measured after 48 hrs by SRB assay; assay type: functional
[41] = test system: HCT-116; test: Induction of apoptosis in human HCT-116 cells assessed as viable cells at 5 uM measured after 24 hrs by Annexin-V Alexa Fluor488/propidium iodide staining based flow cytometry (reference value: 88.1%); assay type: functional; conditions: read-out: Activity

## COc1cccc2nc(Nc3cccc(NC(=O)c4ccc(N5CCN(C)CC5)c(C(F)(F)F)c4)c3)ccc12
[1]
  GI50: 0.856 µM
[2]
  GI50: 1.09 µM
[3]
  Activity: 4.7%
[4]
  GI50: 1.1 µM
[5]
  GI50: 2.26 µM
[6]
  Activity: 14%
[7]
  Activity: 4.1%
[8]
  GI50: 1.53 µM
[9]
  GI50: 2.79 µM
[10]
  viability at 48 h, 10 µM: 66.1%
[11]
  Activity: 2.7%
[12]
  GI50: 0.967 µM
  LC50: 3.82 µM
  TGI: 1.92 µM
[13]
  GI50: 1.52 µM
[14]
  Activity: 8.6%
[15]
  IC50: 2.25 µM
[16]
  GI50: 0.873 µM
  TGI: 1.57 µM
  CC50: 2.83 µM
[17]
  GI50: 1.04 µM
[18]
  GI50: 1.21 µM
[19]
  GI50: 1.8 µM
[20]
  viability at 1.25 µM: 81.7%
[21]
  GI50: 1.4 µM
  LC50: > 50 µM
  TGI: > 50 µM
[22]
  GI50: 1.11 µM
[23]
  GI50: 1.5 µM
[24]
  viability at 48 h, 3 µM: 88.6%
[25]
  Activity: 5.4%
[26]
  Activity: 3.5%
[27]
  viability at 1.25 µM: 82.7%
[28]
  GI50: 1.65 µM
  LC50 (concentration killing 50% of cells): > 50 µM
  TGI: 6.44 µM
[29]
  GI50: 1 µM
[30]
  GI50: 0.885 µM
[31]
  GI50: 0.816 µM
  LC50 (concentration killing 50% of cells): 3.2 µM
  TGI: 1.62 µM
[32]
  GI50: 0.868 µM
  LC50: 4.1 µM
  TGI: 1.89 µM
[33]
  GI50: 1.07 µM
[34]
  GI50: 1.11 µM
  LC50: 18.4 µM
  TGI: 3.65 µM
[35]
  Activity: 14.3%
[36]
  GI50: 0.734 µM
  LC50 (concentration killing 50% of cells): 3.04 µM
  TGI: 1.49 µM
[37]
  GI50: 0.937 µM
[38]
  viability at 48 h, 1 µM: 86.5%
[39]
  viability at 2.5 µM: 81.2%
[40]
  GI50: 1.55 µM
[41]
  viability at 5 µM: 85.1%

## CCN1CCN(c2cc(C(=O)Nc3cccc(Nc4ccc5c(OC)cccc5n4)c3)cc(C(F)(F)F)c2)CC1
[1]
  GI50: 1.02 µM
[2]
  GI50: 1.71 µM
[3]
  Activity: 12.5%
[4]
  GI50: 0.91 µM
[5]
  GI50: 2.85 µM
[6]
  Activity: 16.6%
[7]
  Activity: 0.9%
[8]
  GI50: 2.78 µM
[9]
  GI50: 3.78 µM
[10]
  viability at 48 h, 10 µM: 68.2%
[11]
  Activity: 0.3%
[12]
  GI50: 0.803 µM
  LC50: 11.4 µM
  TGI: 2.25 µM
[13]
  GI50: 1.55 µM
[14]
  Activity: 0.6%
[15]
  IC50: 0.538 µM
[16]
  GI50: 0.78 µM
  TGI: 1.96 µM
  CC50: 7.04 µM
[17]
  GI50: 1.01 µM
[18]
  GI50: 3.41 µM
[19]
  GI50: 4.94 µM
[20]
  viability at 1.25 µM: 82.7%
[21]
  GI50: 0.758 µM
  LC50: 8.04 µM
  TGI: 2.06 µM
[22]
  GI50: 2.1 µM
[23]
  GI50: 1.29 µM
[24]
  viability at 48 h, 3 µM: 82.8%
[25]
  Activity: 0.6%
[26]
  Activity: 0.5%
[27]
  viability at 1.25 µM: 86.5%
[28]
  GI50: 1.2 µM
  LC50 (concentration killing 50% of cells): 15.3 µM
  TGI: 5.32 µM
[29]
  GI50: 2.05 µM
[30]
  GI50: 1.36 µM
[31]
  GI50: 0.611 µM
  LC50 (concentration killing 50% of cells): 2.88 µM
  TGI: 1.33 µM
[32]
  GI50: 0.872 µM
  LC50: 12.4 µM
  TGI: 3.54 µM
[33]
  GI50: 3.82 µM
[34]
  GI50: 0.749 µM
  LC50: 14.6 µM
  TGI: 4.05 µM
[35]
  Activity: 19%
[36]
  GI50: 0.746 µM
  LC50 (concentration killing 50% of cells): 12.4 µM
  TGI: 3.88 µM
[37]
  GI50: 0.798 µM
[38]
  viability at 48 h, 1 µM: 81.5%
[39]
  viability at 2.5 µM: 82.9%
[40]
  GI50: 1.8 µM
[41]
  viability at 5 µM: 79.2%
